Assay type in all cases: cell-based
For experiment [1], the system named is Wnt activity (Sp5-Luc reporter, SW480 colon carcinoma cells). Kind of experiment: Screening assay for Wnt activity (Sp5-Luc reporter gene assay in SW480 cells). The note with it: Homo sapiens; for EC50: Sp5-Luc reporter, SW480 cells, incubated overnight. An outline of the steps:
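SW480 colon carcinoma cells stably carrying Sp5 promoter (eight TCF/LEF sites)-driven firefly luciferase, plated at 4,000 cells/well in 1% FBS medium and incubated overnight at 37° C. Luminescence normalised to DMSO-only cells; EC50 from four-parameter variable-slope nonlinear regression.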
On the technique in general: Reporter assays use an easily measured gene product as a stand-in for the process of interest.

The test system of the next experiment is IL-6 (THP-1 cells). Kind of experiment: IL-6 inhibition in LPS-stimulated THP-1 cells (HTRF). As to conditions: Homo sapiens; IL6 by HTRF, THP-1 cells, 500 ng/mL LPS, 22 hours. An outline of the steps: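 THP-1 cells, pre-cultured 24 h in 1% FBS medium, treated with compound 2 h at 37 °C, then stimulated with 500 ng/mL LPS for 22 h. Secreted IL-6 measured by HTRF as the 665/620 nm ratio. Values normalized to DMSO; EC50 from four-parameter fit, duplicates.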

Experiment [2] has as its system primary human mesenchymal stem cells (hMSCs). Nature of the experiment: Induction of chondrogenesis in hMSCs (Rhodamine B / Nile Red nodule imaging). As to conditions: for Emax: maximum activity relative to TGF-β3 (10 ng/mL) positive control, read-out: Max. Activity as % TGF-β3 activity; for EC50: concentration required to induce 50% levels of chondrogenesis vs TGF-β3 positive control, read-out: Conc (nM) of 50% TGF-β3 activity. The source says:
Representative compounds were screened using primary human mesenchymal stem cells (hMSCs) to determine their ability to induce chondrogenesis (process by which cartilage is developed).
Primary human mesenchymal stem cells (hMSCs) were purchased from Lonza (Walkersville, Md.) and expanded in Mesenchymal Stem Cell Growth Media (Lonza). Cells between passage 3 and 6 were used for the experiments.
Area of nodules in each well was normalized to the average of 3 DMSO treated wells on the same plate using Excel (Microsoft Inc.). The normalized averages (fold change over DMSO) of 2 or 3 replicate wells for each compound concentration were calculated. Due to solubility limitations of some of the compounds, curve fitting was incomplete leading to inaccurate EC50 determinations.
Using TGF-β3 as a positive control, the concentration of representative compounds required to induce 50% levels of chondrogenesis is reported. In addition, the maximum activity of each compound and the respective dose that each compound reached maximum chondrogenesis activity is reported.

Experiment [3] deals with primary human fibroblasts derived from IPF patients (LL29 cells) treated with TGF-β1. Nature of the experiment: Inhibition of the fibrotic process (αSMA staining) in TGF-β1-treated fibroblasts. The note with it: Fibroblast, 96 h; for EC50: % αSMA-positive LL29 cells, TGF-β1 20 ng/mL, 4 days; for inhibition at 10 µM: read-out: percent inhibition at 10 μM. An outline of the steps: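 LL29 fibroblasts from IPF patients, 1,500 cells/well in F12 with 1% FBS, stimulated with TGF-β1; TGF-β1 plus DMSO wells as controls. Incubation 4 days, then SYTOX green 1 μM final for 30 min at room temperature. Fibrotic response read as αSMA staining.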

In the next experiment the test system is SW480 colon cancer cells. Kind of experiment: Cell viability assay (CellTiter-Blue). The note with it: Homo sapiens; for EC50: 96 h, SW480 cell viability, four days, CellTiter-Blue; for inhibition at 10 µM: SW480, 96 h, read-out: percent inhibition at 10 μM. An outline of the steps: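 Fluorescence from resazurin reduced to resorufin by metabolically active cells was the read-out, taken after ~3 h with CellTiter-Blue.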
A general note: Resazurin is reduced to fluorescent resorufin, in cell work by metabolically active cells.

The term inhibition denotes the share of the control response that was lost under treatment. Regarding `CN(C)Cc1cncc(-c2ccc3[nH]nc(-c4cc5c(-c6ccc(F)cc6)nccc5[nH]4)c3c2)c1` [Compound 41, 1-(5-(3-(4-(4-Fluorophenyl)-1H-pyrrolo[3,2-c]pyridin-2-yl)-1H-indazol-5-yl)pyridin-3-yl)-N,N-dimethylmethanamine], in experiment [1] (SW480, read-out: percent inhibition at 10 μM), the inhibition at 10 µM amounted to 55.7%. Besides, the EC50 in experiment [1] is over 10000 nM; in the experiment on IL-6 (THP-1 cells), 9400 nM; in experiment [3], 2650 nM; in the experiment on SW480 colon cancer cells, 2990 nM. In addition, the Emax in experiment [2] turned out to be 46%.

Turning to `Fc1ccc(-c2nccc3[nH]c(-c4n[nH]c5ccc(-c6cncc(CN7CCCC7)c6)cc45)cc23)cc1` [Compound 42, 3-(4-(4-Fluorophenyl)-1H-pyrrolo[3,2-c]pyridin-2-yl)-5-(5-(pyrrolidin-1-ylmethyl)pyridin-3-yl)-1H-indazole], the EC50 worked out at 3620 nM in experiment [1]; 9010 nM in the experiment with IL-6 (THP-1 cells); 30 nM in experiment [2]; 1340 nM in experiment [3]; 1410 nM in the experiment with SW480 colon cancer cells. In addition, in experiment [2], the Emax came to 98%.

In the case of `CCCC(=O)Nc1cncc(-c2ccc3[nH]nc(-c4cc5c(-c6ccc(F)cc6)nccc5[nH]4)c3c2)c1` [Compound 45, N-(5-(3-(4-(4-Fluorophenyl)-1H-pyrrolo[3,2-c]pyridin-2-yl)-1H-indazol-5-yl)pyridin-3-yl)butyramide], the EC50 in experiment [1] amounted to 520 nM; in the experiment on IL-6 (THP-1 cells), 929 nM; in experiment [2], 900 nM; in experiment [3], 263 nM; in the experiment on SW480 colon cancer cells, 262 nM. Also, in experiment [2], the Emax amounted to 142%.

Take `O=C(Nc1cncc(-c2ccc3[nH]nc(-c4cc5c(-c6ccc(F)cc6)nccc5[nH]4)c3c2)c1)C1CCC1` [Compound 49, N-(5-(3-(4-(4-Fluorophenyl)-1H-pyrrolo[3,2-c]pyridin-2-yl)-1H-indazol-5-yl)pyridin-3-yl)cyclobutanecarboxamide]: the EC50 in experiment [1] was determined as 365 nM; in the experiment with IL-6 (THP-1 cells) it was 1080 nM; in experiment [2], 900 nM; in experiment [3], 115 nM; in the experiment with SW480 colon cancer cells, 186 nM. Besides, the Emax in experiment [2] was 160%.

Consider `Fc1ccc(-c2nccc3[nH]c(-c4n[nH]c5ccc(-c6cncnc6)cc45)cc23)cc1` [Compound 55, 3-(4-(4-Fluorophenyl)-1H-pyrrolo[3,2-c]pyridin-2-yl)-5-(pyrimidin-5-yl)-1H-indazole], for which the EC50 is 1510 nM in experiment [1]; 1570 nM in the experiment on IL-6 (THP-1 cells); 10 nM in experiment [2]; 326 nM in experiment [3]; 1050 nM in the experiment on SW480 colon cancer cells. In experiment [2], the Emax turned out to be 194%.

Consider `Nc1cncc(-c2ccc3[nH]nc(-c4cc5c(-c6ccccc6F)nccc5[nH]4)c3c2)c1` [Compound 59, 5-(3-(4-(2-Fluorophenyl)-1H-pyrrolo[3,2-c]pyridin-2-yl)-1H-indazol-5-yl)pyridin-3-amine], for which the EC50 in experiment [1] was 60 nM; in the experiment with IL-6 (THP-1 cells) it was 9540 nM; in experiment [2] it was 2700 nM; in experiment [3], over 10000 nM; with SW480 colon cancer cells, over 10000 nM. In experiment [2], the Emax stood at 70%. Moreover, the figures for the inhibition at 10 µM (in experiment [3]; in the experiment on SW480 colon cancer cells) were 46.6% and 43.5%, respectively.

Turning to `CCNCc1cncc(-c2ccc3[nH]nc(-c4cc5c(-c6ccccc6F)nccc5[nH]4)c3c2)c1` [Compound 62, N-((5-(3-(4-(2-Fluorophenyl)-1H-pyrrolo[3,2-c]pyridin-2-yl)-1H-indazol-5-yl)pyridin-3-yl)methyl)ethanamine], the EC50 stood at 3360 nM in experiment [1]; 2860 nM in the experiment on IL-6 (THP-1 cells); 900 nM in experiment [2]; 2490 nM in experiment [3]; 1280 nM with SW480 colon cancer cells. Besides, the Emax in experiment [2] stood at 59%.

In the case of `CC(C)C(=O)Nc1cncc(-c2ccc3[nH]nc(-c4cc5c(-c6ccccc6F)nccc5[nH]4)c3c2)c1` [Compound 65, N-(5-(3-(4-(2-Fluorophenyl)-1H-pyrrolo[3,2-c]pyridin-2-yl)-1H-indazol-5-yl)pyridin-3-yl)isobutyramide], the EC50 came out at 170 nM in experiment [1]; 73 nM in the experiment on IL-6 (THP-1 cells); 2700 nM in experiment [2]; 98 nM in experiment [3]; 221 nM in the experiment on SW480 colon cancer cells. The Emax in experiment [2] stood at 108%.

`Fc1ccccc1-c1nccc2[nH]c(-c3n[nH]c4ccc(-c5cncc(CN6CCCCC6)c5)cc34)cc12` [Compound 71, 3-(4-(2-Fluorophenyl)-1H-pyrrolo[3,2-c]pyridin-2-yl)-5-(5-(piperidin-1-ylmethyl)pyridin-3-yl)-1H-indazole]: the EC50 in experiment [1] amounted to 2800 nM; in the experiment on IL-6 (THP-1 cells), 1090 nM; in experiment [3], 1940 nM; in the experiment on SW480 colon cancer cells it was 1000 nM. The Emax in experiment [2] was 16%.

As to `CCCCC(=O)Nc1cncc(-c2ccc3[nH]nc(-c4cc5c(-c6ccccc6F)nccc5[nH]4)c3c2)c1` [Compound 75, N-(5-(3-(4-(2-Fluorophenyl)-1H-pyrrolo[3,2-c]pyridin-2-yl)-1H-indazol-5-yl)pyridin-3-yl)pentanamide], the EC50 amounted to 345 nM in experiment [1]; 39 nM with IL-6 (THP-1 cells); 2700 nM in experiment [2]; 254 nM in experiment [3]; 221 nM in the experiment on SW480 colon cancer cells. In addition, the Emax in experiment [2] worked out at 76%.

For the compound `O=C(Nc1cncc(-c2ccc3[nH]nc(-c4cc5c(-c6ccccc6F)nccc5[nH]4)c3c2)c1)C1CCCC1` [Compound 78, N-(5-(3-(4-(2-Fluorophenyl)-1H-pyrrolo[3,2-c]pyridin-2-yl)-1H-indazol-5-yl)pyridin-3-yl)cyclopentanecarboxamide], the EC50 was 418 nM in experiment [1]; 78 nM in the experiment with IL-6 (THP-1 cells); 10 nM in experiment [2]; 841 nM in experiment [3]; 549 nM with SW480 colon cancer cells. Moreover, the Emax in experiment [2] came out at 71%.

In the case of `Fc1ccccc1-c1nccc2[nH]c(-c3n[nH]c4ccc(-c5cncc(CN6CCC(F)(F)C6)c5)cc34)cc12` [Compound 82, 5-(5-((3,3-Difluoropyrrolidin-1-yl)methyl)pyridin-3-yl)-3-(4-(2-fluorophenyl)-1H-pyrrolo[3,2-c]pyridin-2-yl)-1H-indazole], the EC50 in experiment [1] was 233 nM; in the experiment on IL-6 (THP-1 cells), 181 nM; in experiment [2], 2700 nM; in experiment [3], 221 nM; in the experiment on SW480 colon cancer cells, 821 nM. The Emax in experiment [2] is 172%.

On to `Nc1cncc(-c2ccc3[nH]nc(-c4cc5c(-c6cccnc6)nccc5[nH]4)c3c2)c1` [Compound 87, 5-(3-(4-(Pyridin-3-yl)-1H-pyrrolo[3,2-c]pyridin-2-yl)-1H-indazol-5-yl)pyridin-3-amine], for which the EC50 in experiment [1] is 146 nM; with IL-6 (THP-1 cells), 86 nM; in experiment [2] it was 100 nM; in experiment [3], 113 nM; with SW480 colon cancer cells it was 562 nM. In addition, the Emax in experiment [2] stood at 178%.

With `O=C(Nc1cncc(-c2ccc3[nH]nc(-c4cc5c(-c6cccnc6)nccc5[nH]4)c3c2)c1)c1ccccc1` [Compound 95, N-(5-(3-(4-(Pyridin-3-yl)-1H-pyrrolo[3,2-c]pyridin-2-yl)-1H-indazol-5-yl)pyridin-3-yl)benzamide], the EC50 in experiment [1] was 421 nM; in the experiment with IL-6 (THP-1 cells) it was 10 nM; in experiment [3] it was over 10000 nM; with SW480 colon cancer cells, over 10000 nM. Further, the Emax in experiment [2] stood at 19%. Further, the results for the inhibition at 10 µM (in experiment [3]; in the experiment with SW480 colon cancer cells) were 0% and 15.5%, respectively.

As to `O=C(Nc1cncc(-c2ccc3[nH]nc(-c4cc5c(-c6cccnc6)nccc5[nH]4)c3c2)c1)C1CCC1` [Compound 105, N-(5-(3-(4-(Pyridin-3-yl)-1H-pyrrolo[3,2-c]pyridin-2-yl)-1H-indazol-5-yl)pyridin-3-yl)cyclobutanecarboxamide], the EC50 in experiment [1] worked out at 111 nM; with IL-6 (THP-1 cells), 40 nM; in experiment [2], 10 nM; in experiment [3], 2420 nM; with SW480 colon cancer cells, 555 nM. Also, the Emax in experiment [2] is 172%.

The values above are taken from US10463651B2, “3-(1H-pyrrolo[3,2-C]pyridin-2-YL)-1H-indazoles and therapeutic uses thereof” (Samumed, LLC, priority 2015, dated 2019).
